Data on 21 compounds can be found in patent publication US10538497B2, “Compounds as indoleamine 2,3-dioxygenase inhibitors” (Merck Sharp & Dohme Corp., priority 2015, dated 2020).

pIC50: −log10 of the molar value. Where only a bound is given, the exact number is not on record here.

For orientation: pIC50 means the negative decadic logarithm of the IC50, by convention in mol/L. As usually defined, the IC50 is the midpoint of a concentration-inhibition curve.

In assay [1] the target is T1, IDO1 (Homo sapiens (Human), UniProt P14902). Put plainly: IDO1 Cellular Assay in Hela Cells Stimulated with IFNγ. To be noted: Hela cells stimulated with IFNγ 100 ng/mL; read-out: IDO1 HELA Cell Assay, IC50. In kind it is cell-based. The method, then: IDO1 Cellular Assay in Hela Cells Stimulated with IFNγ
T1 sequence (P14902 whole entry): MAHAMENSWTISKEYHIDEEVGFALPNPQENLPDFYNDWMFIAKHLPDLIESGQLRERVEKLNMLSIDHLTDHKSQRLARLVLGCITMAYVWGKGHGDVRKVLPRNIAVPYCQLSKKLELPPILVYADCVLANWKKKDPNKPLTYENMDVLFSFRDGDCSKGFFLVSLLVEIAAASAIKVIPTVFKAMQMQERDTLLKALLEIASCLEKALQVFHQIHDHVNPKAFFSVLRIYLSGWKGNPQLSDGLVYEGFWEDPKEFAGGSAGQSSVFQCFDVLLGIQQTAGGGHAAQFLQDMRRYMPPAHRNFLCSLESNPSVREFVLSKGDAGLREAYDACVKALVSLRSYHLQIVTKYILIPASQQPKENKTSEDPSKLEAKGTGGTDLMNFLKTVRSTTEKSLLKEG
Hela cells were cultured in complete Hela culture medium (90% EMEM, 10% heat-inactivated fetal bovine serum) and expanded to about 1×10^9 cells. The cells were then collected and frozen down at 10×10^6 cells/vial in 1 mL frozen medium (90% complete Hela culture medium, 10% DMSO)
Frozen Hela cells were thawed and transferred into Hela assay medium (99% complete Hela culture medium, 1% Pen/Strep) with 20 mL medium/vial of cells. The cells were spun down at 250 g in a table top centrifuge for 5 min and suspended in same volume of Hela assay medium. The cells were then counted and adjusted to a density of 2×10^5 cells/ml in Hela assay medium. Sterile L-tryptophan were added to the cells with final concentration of 300 uM L-tryptophan. A small aliquot (2 mL/plate) of Hela cells were set aside and were not treated with IFNγ, to serve as the Max-E control. The rest of Hela cells were added with sterile IFNγ (Cat #285-IF, R & D systems) with a final concentration of 100 ng/mL.
Hela cells with and without IFNγ were dispensed to the respective wells of 384-well assay plates containing the compounds. The plates were incubated for about 48 hours at a 37° C., 5% CO2 incubator. […] The plates were centrifuged for 1 min at 200×g. The resulting fluorescence was measured in a Spectramax plate reader (Molecular Devices) with a 400 nm excitation filter and a 510 nm emission filter.

For assay [2], the target named is T1, IDO1. Put plainly: IDO1 Cellular Assay in Frozen HEK293 Cells Transiently Transfected with Human IDO1. Format: cell-based. To be noted: HEK293 cells transiently transfected with human IDO1; read-out: IDO1 HEK293 Cell Assay, IC50. The method, then: IDO1 Cellular Assay in Frozen HEK293 Cells Transiently Transfected with Human IDO1
HEK293 cells were cultured in complete HEK293 culture medium (90% DMEM, 10% heat-inactivated fetal bovine serum). When reaching sub-confluent, the cells were trypsinized and neutralized with complete medium. […] Flag-IDO1 plasmid was added to the cell suspension at a concentration of 100 μg/mL. The cell-plasmid solutions were transferred to the OC-400 processing assembly (Maxcyte), 400 l/unit and the units were placed in a Maxcyte instrument to carry out flow electroporation for transfection. The cells were then transferred to a sterile 24-well cell culture plate to recover for 20-30 min at 37° C. in an incubator with 5% CO2.
Frozen HEK293/IDO1 and HEK293 WT cells were thawed and transferred into HEK293 assay medium (99% complete HEK293 culture medium, 1% Pen/Strep) with 20 mL medium/vial of cells. The cells were spun down at 250 g in a table top centrifuge for 5 min and suspended in same volume of HEK293 assay medium. […] Sterile L-tryptophan were added to the cells with final concentration of 300 μM.
HEK293/IDO1 and HEK293 WT cells were dispensed to the respective wells of 384-well assay plates containing the compounds. The plates were incubated for about 28-30 h at a 37° C., 5% CO2 incubator. […] The plates were centrifuged for 1 min at 200×g. The resulting fluorescence was measured in a Spectramax plate reader (Molecular Devices) with a 400 nm excitation filter and a 510 nm emission filter.

Assay [3] has as its target T1, IDO1. Put plainly: IDO1 Enzyme Assay. To be noted: HIS-tagged recombinant IDO1, 40 nM; for IC50: IDO1 Enzyme Assay, IC50, nM; for pIC50: read-out: IDO1 Enzyme Assay, IC50.

`OCC(O)CSc1nonc1/C(=N/O)Nc1ccc(F)c(Br)c1` (single isomer, unassigned) [Example 63, N-(3-bromo-4-fluorophenyl)-4-[(2,3-dihydroxypropyl)sulfanyl]-N′-hydroxy-1,2,5-oxadiazole-3-carboximidamide]: the negative logarithm of the IC50 (pIC50) is 7.43 at IDO1 [1] and 7.27 on IDO1 [2]. The IC50 at IDO1 [3] is 46.1 nM.

Take `OCC(O)CSc1nonc1/C(=N/O)Nc1ccc(F)c(Br)c1` (single isomer, unassigned) [Example 64, N-(3-bromo-4-fluorophenyl)-4-[(2,3-dihydroxypropyl)sulfanyl]-N′-hydroxy-1,2,5-oxadiazole-3-carboximidamide]: the results for the pIC50 at IDO1 [1] and at IDO1 [2] were 7.36 and 7.12, respectively. Further, on IDO1 [3], the half-inhibitory concentration (IC50) was found to be 49.1 nM.

Consider `NCCSc1nonc1/C(=N/O)Nc1ccc(F)c(Br)c1` [Example 2, (Z)-2-((4-(N-(3-Bromo-4-fluorophenyl)-N′-hydroxycarbamimidoyl)-1,2,5-oxadiazol-3-yl)thio)ethan-1-aminium chloride], for which the pIC50 at IDO1 [1] is 7.11; at IDO1 [2] it was 6.67; at IDO1 [3] it was 7.32.

As for `NS(=O)(=O)NCCSc1nonc1/C(=N/O)Nc1ccc(F)c(Br)c1` [Example 3, (Z)—N-(3-Bromo-4-fluorophenyl)-N′-hydroxy-4-((2-(sulfamoylamino)ethyl)thio)-1,2,5-oxadiazole-3-carboximidamide], the pIC50 on IDO1 [1] is 7.14; on IDO1 [2], 7.24; on IDO1 [3], 7.10.

For the compound `O=P(O)(O)CCSc1nonc1/C(=N/O)Nc1ccc(F)c(Br)c1` [Example 8, (Z)-(2-((4-(N-(3-Bromo-4-fluorophenyl)-N′-hydroxycarbamimidoyl)-1,2,5-oxadiazol-3-yl)thio)ethyl)phosphonic acid], the values for the pIC50 on IDO1 [1], at IDO1 [2] and at IDO1 [3] were 5.10, 5.20 and 6.97, respectively.

As for `CC(C)OC(=O)OCOP(=O)(O)CCSc1nonc1/C(=N/O)Nc1ccc(F)c(Br)c1` [Example 9, (Z)-(((2-((4-(N-(3-bromo-4-fluorophenyl)-N′-hydroxycarbamimidoyl)-1,2,5-oxadiazol-3-yl)thio)ethyl)(hydroxy)phosphoryl)oxy)methyl isopropyl carbonate], the figures for the negative logarithm of the IC50 (pIC50) at IDO1 [1], on IDO1 [2] and on IDO1 [3] were 5.30, 5.29 and 6.71, respectively.

Consider `CC(C)OC(=O)OCOP(=O)(CCSc1nonc1/C(=N/O)Nc1ccc(F)c(Br)c1)OCOC(=O)OC(C)C` [Example 10, (Z)-(((2-((4-(N-(3-bromo-4-fluorophenyl)-N′-hydroxycarbamimidoyl)-1,2,5-oxadiazol-3-yl)thio)ethyl)phosphoryl)bis(oxy))bis(methylene) diisopropyl bis(carbonate)], for which the negative logarithm of the IC50 (pIC50) on IDO1 [1] is 5.38; on IDO1 [2], less than 5.00; on IDO1 [3] it was 6.86.

Consider `CC(=O)NCCSc1nonc1/C(=N/O)Nc1ccc(F)c(Br)c1` [Example 11, (Z)—N-(2-((4-(N-(3-Bromo-4-fluorophenyl)-N′-hydroxycarbamimidoyl)-1,2,5-oxadiazol-3-yl)thio)ethyl)acetamide], for which the pIC50 was 8.03 at IDO1 [1], 7.65 at IDO1 [2] and 7.56 at IDO1 [3].

On to `CCOC(=O)CCSc1nonc1/C(=N/O)Nc1ccc(F)c(Br)c1` [Example 13, Ethyl (Z)-3-((4-(N-(3-bromo-4-fluorophenyl)-N′-hydroxycarbamimidoyl)-1,2,5-oxadiazol-3-yl)thio)propanoate], for which the pIC50 was 5.21 on IDO1 [1], 5.35 on IDO1 [2] and 7.06 at IDO1 [3].

Consider `O=C(O)CSc1nonc1/C(=N/O)Nc1ccc(F)c(Br)c1` [Example 15, (Z)-2-((4-(N-(3-bromo-4-fluorophenyl)-N′-hydroxycarbamimidoyl)-1,2,5-oxadiazol-3-yl)thio)acetic acid], for which the values for the negative-log IC50 (pIC50) at IDO1 [1], on IDO1 [2] and on IDO1 [3] were less than 5.00, less than 5.00 and 6.98, respectively.

Consider `CC(O)CSc1nonc1/C(=N/O)Nc1ccc(F)c(Br)c1` (stereo not shown) [Example 18, (Z)-N-(3-bromo-4-fluorophenyl)-N′-hydroxy-4-((2-hydroxypropyl)thio)-1,2,5-oxadiazole-3-carboximidamide], for which the pIC50 was 7.06 at IDO1 [1], 7.19 at IDO1 [2] and 7.23 on IDO1 [3].

Take `OCCCSc1nonc1/C(=N/O)Nc1ccc(F)c(Br)c1` [Example 19, (Z)-N-(3-bromo-4-fluorophenyl)-N′-hydroxy-4-((3-hydroxypropyl)thio)-1,2,5-oxadiazole-3-carboximidamide]: the negative logarithm of the IC50 (pIC50) is 7.40 at IDO1 [1], 7.40 on IDO1 [2] and 7.14 on IDO1 [3].

On to `OCCCCSc1nonc1/C(=N/O)Nc1ccc(F)c(Br)c1` [Example 20, (Z)-N-(3-bromo-4-fluorophenyl)-N′-hydroxy-4-((4-hydroxybutyl)thio)-1,2,5-oxadiazole-3-carboximidamide], for which the values for the negative-log IC50 (pIC50) at IDO1 [1], on IDO1 [2] and on IDO1 [3] were 7.19, 7.25 and 7.17, respectively.

For the compound `COC(=O)C1(Sc2nonc2/C(=N/O)Nc2ccc(F)c(Br)c2)CCC1` [Example 21, Methyl (Z)-1-((4-(N-(3-bromo-4-fluorophenyl)-N′-hydroxycarbamimidoyl)-1,2,5-oxadiazol-3-yl)thio)cyclobutane-1-carboxylate], the figures for the negative-log IC50 (pIC50) at IDO1 [1] and at IDO1 [2] were 6.62 and 6.28, respectively.

Consider `CCCSc1nonc1/C(=N/O)Nc1ccc(F)c(Br)c1` [Example 23, (Z)-N-(3-bromo-4-fluorophenyl)-N′-hydroxy-4-(propylthio)-1,2,5-oxadiazole-3-carboximidamide], for which the negative logarithm of the IC50 (pIC50) on IDO1 [1] is 6.81; at IDO1 [2], 6.58; on IDO1 [3], 6.73.

On to `CCSc1nonc1/C(=N/O)Nc1ccc(F)c(Br)c1` [Example 24, (Z)-N-(3-bromo-4-fluorophenyl)-4-(ethylthio)-N′-hydroxy-1,2,5-oxadiazole-3-carboximidamide], for which the values for the negative logarithm of the IC50 (pIC50) on IDO1 [1], at IDO1 [2] and at IDO1 [3] were 7.20, 6.88 and 6.81, respectively.

With `O/N=C(\Nc1ccc(F)c(Br)c1)c1nonc1SCC1CNC1` [Example 25, (Z)-4-((azetidin-3-ylmethyl)thio)-N-(3-bromo-4-fluorophenyl)-N′-hydroxy-1,2,5-oxadiazole-3-carboximidamide], the pIC50 on IDO1 [1] was 6.83; at IDO1 [2], 6.82; at IDO1 [3], 7.04.

Turning to `O/N=C(\Nc1ccc(F)c(Br)c1)c1nonc1SC1CNC1` [Example 26, (Z)-4-(azetidin-3-ylthio)-N-(3-bromo-4-fluorophenyl)-N′-hydroxy-1,2,5-oxadiazole-3-carboximidamide], the negative logarithm of the IC50 (pIC50) is 6.99 on IDO1 [1], 6.76 at IDO1 [2] and 7.13 at IDO1 [3].

Consider `O=c1[nH]nc(CSc2nonc2/C(=N/O)Nc2ccc(F)c(Br)c2)[nH]1` [Example 34, N-(3-bromo-4-fluorophenyl)-N′-hydroxy-4-(((5-oxo-4,5-dihydro-1H-1,2,4-triazol-3-yl)methyl)thio)-1,2,5-oxadiazole-3-carboximidamide], for which the negative logarithm of the IC50 (pIC50) on IDO1 [1] was 7.40; on IDO1 [2] it was 6.73; at IDO1 [3] it was 7.19.

Turning to `CN1C(=O)NC[C@@H]1CSc1nonc1/C(=N/O)Nc1ccc(F)c(Br)c1` [Example 43, (R)—N-(3-bromo-4-fluorophenyl)-N′-hydroxy-4-(((3-methyl-2-oxoimidazolidin-4-yl)methyl)thio)-1,2,5-oxadiazole-3-carboximidamide], the pIC50 on IDO1 [1] was 6.93; at IDO1 [2], 7.11; on IDO1 [3] it was 7.27.

Turning to `CNC(=O)C1(CSc2nonc2/C(=N/O)Nc2ccc(F)c(Br)c2)CC1` [Example 69, 1-[({4-[N-(3-bromo-4-fluorophenyl)-N′-hydroxycarbamimidoyl]-1,2,5-oxadiazol-3-yl}sulfanyl)methyl]-N-methylcyclopropanecarboxamide], the negative logarithm of the IC50 (pIC50) is 7.04 on IDO1 [1] and 6.99 on IDO1 [2].
